For 84 molecules, inhibition and IC50 results are on record in patent US10940139B2, “Compounds that interact with the Ras superfamily for the treatment of cancers, inflammatory diseases, rasopathies, and fibrotic disease” (Shy Therapeutics LLC, priority 2017, dated 2021).

Chain of KRas G12D/Q61H double mutant (P01116-2 other isoform, or with tags, fused parts or gaps G12D/Q61H): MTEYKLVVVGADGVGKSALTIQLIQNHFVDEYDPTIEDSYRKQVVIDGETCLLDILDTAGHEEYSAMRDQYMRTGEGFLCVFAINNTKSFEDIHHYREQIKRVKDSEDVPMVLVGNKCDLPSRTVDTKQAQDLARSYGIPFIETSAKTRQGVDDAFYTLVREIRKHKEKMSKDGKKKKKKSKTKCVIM

The first assay has as its target KRas G12D/Q61H double mutant (Homo sapiens (Human), UniProt P01116, G12D/Q61H). The experiment in a line: Ras GTP binding domain inhibition assay (labeled GTP). Conditions: 20 μM compound; KRas G12D/Q61H double mutant; read-out: % Inhibition at 20 μM of K-Ras mutant and wild-type protein, KRas G12D Q61H. A digest of the protocol:
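Inhibition of labeled GTP binding is measured on immobilized His-KRas protein in Tris buffer pH 7.5 with 1 mM MgCl2 and 1 mM DTT.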
For `CCC(C)Sc1ccc(NC(=O)c2ccccc2OCCOC)c(C(F)(F)F)c1` (stereo not shown), the inhibition at 20 µM was in the range of 25 to 50%.
Same read-out and setting: to `Cc1cc2oc(=O)cc(CN(C)Cc3c(C)nn(Cc4ccccc4Cl)c3C)c2cc1C` belongs 25 to 50%; to `CCOc1ccccc1N1CC(c2nc3ccccc3n2CCC2CCCCC2)CC1=O` (stereo not shown), 25 to 50%.
In the case of `CCOC(=O)c1c(NC(C)=O)sc(Cc2ccc3c(c2)OCO3)c1C`, the inhibition at 20 µM fell in the range of 25 to 50%.
The same measure, in the same setting: to `Cc1cccc(-n2ccnc2SCCCc2nc(-c3cccs3)no2)c1` belongs 25 to 50%.
On the same count and under the same terms, to `Cc1ccc(C)c(-c2csc(C3CN(Cc4ccccc4)CCO3)n2)c1` (stereo not shown) belongs 25 to 50%; to `Cc1nc(Cc2nnc(SCc3ccc(-c4ccccc4C#N)cc3)o2)cs1`, 1 to 25%.
Same read-out and setting: in the case of `Cc1cc(C)c2c(N)c(C(=O)OCc3ccc(C(=O)N4CCCC4)cc3)sc2n1` it was 1 to 25%; in that of `NC(=O)C1CCCN1Cc1cccc(NC(=O)c2ccccc2OCCOc2ccccc2)c1` (stereo not shown), 25 to 50%.
For `COc1cccc(-c2nc(C(=O)N3CCC(c4ccccc4)CC3)c[nH]2)c1OC`, the inhibition at 20 µM was in the range of 25 to 50%.
The same measure, in the same setting: in the case of `O=C(CCOCc1ccccc1)Nc1nnc(-c2ccccn2)[nH]1` it was 51 to 75%.
Turning to `COc1ccc(C(C)=O)cc1CC(C(=O)c1ccc(C2CCCCC2)cc1)N(C)C` (stereo not shown), the inhibition at 20 µM lay within 25 to 50%.
Same read-out and setting: to `COC(=O)c1ccoc1COc1ccc(C(=O)c2ccc(F)cc2)cc1` belongs 51 to 75%.
In the case of `CC(=O)c1c(F)cccc1N1CCN(c2cccc(C(F)(F)F)c2)CC1`, the inhibition at 20 µM was in the range of 25 to 50%.
Still for that read-out and setting: in the case of `O=C(Cc1ccccc1[N+](=O)[O-])N1CCCC1C1CCCC1` (stereo not shown) it was 1 to 25%.
On the same count and under the same terms, in the case of `CCOC(=O)c1c(-c2ccc(OC)cc2)oc2ccc(OCC=C(C)C)cc12` it was 25 to 50%; in that of `CCN(CC(=O)Nc1ccccc1OC)Cc1coc(-c2ccc(C)cc2C)n1`, 25 to 50%; in that of `Cc1ccc(OS(=O)(=O)NCCC(c2ccccc2)c2ccccc2)cc1`, 1 to 25%.
Same read-out and setting: in the case of `CC(C)n1cnnc1CNCc1ccc(OCc2ccccc2)cc1OCc1ccccc1` it was 1 to 25%.
For the molecule `CC(=O)c1cc(C(=O)Nc2cccc(COC3CCCCC3)c2)n(C)c1`, the inhibition at 20 µM was in the range of 25 to 50%.
As to `COc1ccc(CN(C)Cc2ccc(OC)c(SC(F)(F)F)c2)cc1F`, the inhibition at 20 µM lay within 25 to 50%.
Regarding `COc1ccc(N(CC(=O)N(c2ccccc2)C(C)C)S(=O)(=O)c2ccccc2C(F)(F)F)cc1`, the inhibition at 20 µM was 25 to 50%.
Consider `COC(=O)c1cc(NCc2cnc(C(C)(C)C)s2)ccc1Br`, for which the inhibition at 20 µM fell in the range of 25 to 50%.

Still in this assay, the particulars now being: 20 μM compound; read-out: % Inhibition at 20 μM KRas G12D Q61H.
As for `Cc1ccccc1OCCn1c(CN2CCCCC2)nc2ccccc21`, the inhibition at 20 µM lay in the range of 25 to 50%.
Consider `Cc1nc(-c2ccccn2)nc(O)c1CCC(=O)N(C)c1cccc(C#N)c1`, for which the inhibition at 20 µM fell in the range of 25 to 50%.
Still for that read-out and setting: to `COc1ccc(S(=O)(=O)N(CC(=O)N2CCCc3ccccc32)Cc2ccco2)cc1` belongs 25 to 50%; to `Cc1ccc(CN(C(=O)c2cc(-c3ccccc3Cl)[nH]n2)C2CC2)o1`, 1 to 25%.
The same measure, in the same setting: to `CN(C)c1ccccc1NCc1cc(Br)c2c(c1)OCCCO2` belongs 25 to 50%.
Turning to `COCC(O)CN1CCC(Nc2nc(-c3ccccn3)nc3c2CCC3)CC1` (stereo not shown), the inhibition at 20 µM lay in the range of 25 to 50%.
Same read-out and setting: in the case of `Cc1nc(-c2ccccn2)nc(O)c1CCC(=O)NCc1ccccc1F` it was 25 to 50%; in that of `Fc1ccc(OCc2nnc(SCCCc3ccccc3)o2)cc1`, 25 to 50%; in that of `Nc1nc(O)c2scc(C(=O)N3CCC(N4CCOCC4)CC3)c2n1` [drawing 2662], 1 to 25%.
Same read-out and setting: to `O=c1nc(-c2ccccn2)[nH]c2c1cnn2-c1cccc(C(F)(F)F)c1` belongs 25 to 50%.
Take `COc1ccccc1OCc1ccc(C(=O)N2CCc3ccccc32)o1`: the inhibition at 20 µM lay within 25 to 50%.
Still for that read-out and setting: to `COCC1CCN(C(=O)c2csc3c(O)nc(-c4ccccn4)nc23)CC1` [drawing 2675] belongs 25 to 50%; to `COC(=O)c1csc2c(O)nc(-c3ccccn3)nc12` [drawing 2823], 1 to 25%.
Turning to `Cc1cccc(C(=O)Nc2ccc(OS(=O)(=O)N3CCc4ccccc4C3)cc2)c1`, the inhibition at 20 µM lay in the range of 25 to 50%.
Still for that read-out and setting: in the case of `O=C(c1ccc(-c2ccccc2Cl)o1)N(Cc1cccs1)C1CC1` it was 25 to 50%.
The same measure, in the same setting: in the case of `COc1cccc(C2CN(C(=O)c3csc4c(O)nc(-c5ccccn5)nc34)CCO2)c1` (stereo not shown) [drawing 2729] it was 25 to 50%; in that of `O=C(COCC1CC1)Nc1nnc(-c2ccccn2)[nH]1`, 25 to 50%; in that of `O=C(Nc1nnc(-c2ccccn2)[nH]1)C1CCCN(C(=O)c2ccoc2)C1` (stereo not shown), 25 to 50%.
On the same count and under the same terms, to `O=C(c1cc(-c2ccccc2)nc2ccccc12)N1N=CCC1(O)C(F)(F)F` (stereo not shown) belongs 25 to 50%; to `OC1CCC(Nc2nc(-c3ccccn3)nc3c2CCC3)CC1` (stereo not shown), 25 to 50%; to `COc1ccc(OCCSc2nnc(C(C)Oc3ccc(F)cc3)o2)cc1` (stereo not shown), 25 to 50%.
`CN(CCc1ccncc1)C(=O)c1csc2c(O)nc(-c3ccccn3)nc12` [drawing 2688]: the inhibition at 20 µM lay within 25 to 50%.
Still for that read-out and setting: to `C=CCNC(=O)CN1CCOC(c2nc(-c3ccccc3)cs2)C1` (stereo not shown) belongs 1 to 25%.
Same read-out and setting: to `O=S(=O)(CCc1ccccc1)N1CCCc2c(O)nc(-c3ccccn3)nc21` [drawing 2651] belongs 0%; to `Cc1sc(NC2CCCCC2)nc1-c1ccc(F)c(F)c1`, 25 to 50%.
On the same count and under the same terms, in the case of `COc1ccc(CC(=O)Nc2nc(-c3ccccn3)cs2)cc1OC` it was 25 to 50%.
As for `N#Cc1ccccc1N1CCN(C(=O)c2csc3c(O)nc(-c4ccccn4)nc23)CC1` [drawing 2722], the inhibition at 20 µM was 1 to 25%.
Same read-out and setting: to `Cc1nc(C2CN(Cc3ccccc3F)CCO2)no1` (stereo not shown) belongs 25 to 50%.
In the case of `O=C(c1csc(-c2ncccn2)n1)N1CCC(c2ccc(O)cc2)CC1`, the inhibition at 20 µM was 1 to 25%.
On the same count and under the same terms, in the case of `O=C(CCc1nc2ccccc2[nH]1)Nc1nnc(-c2ccccn2)[nH]1` it was 51 to 75%.
In the case of `c1ccc(OCc2nc(CNCCn3cccn3)cs2)cc1`, the inhibition at 20 µM is 25 to 50%.
As for `Cc1nc(-c2ccccn2)[nH]c(=O)c1CC(=O)NC1CCCCCCC1`, the inhibition at 20 µM lay within 51 to 75%.
On the same count and under the same terms, to `CN(C)S(=O)(=O)c1ccc(N2CCCC2)c(C(=O)NCCCN2CCCC2=O)c1` belongs 25 to 50%; to `O=c1[nH]c(-c2cnccn2)nc2ccccc12`, 1 to 25%; to `O=C(c1csc2c(O)nc(-c3ccccn3)nc12)N1CCNC(c2ccccc2)C1` (stereo not shown), 25 to 50%.
Still for that read-out and setting: to `COCCCC1CCN(C(=O)c2csc3c(O)nc(N)nc23)CC1` [drawing 2661] belongs 25 to 50%; to `Cc1cc(C2CCCN2c2nccc(C(F)(F)F)n2)no1` (stereo not shown), 25 to 50%.
In the case of `CCC1COCCN1c1nc(-c2ccccn2)nc2scc(-c3ccccc3)c12` (stereo not shown), the inhibition at 20 µM was 25 to 50%.
On the same count and under the same terms, in the case of `Cc1cccc2c(=O)[nH]c(-c3ccccn3)nc12` it was 25 to 50%; in that of `COc1ccc(Br)cc1CN(C)C(C)c1nnc(-c2ccc(C)cc2)o1` (stereo not shown), 25 to 50%; in that of `Cc1cccc(-c2nnc(NC(=O)C3Cc4cc(F)ccc4O3)[nH]2)n1` (stereo not shown), 25 to 50%.

The assay is the same for the next values; noted with them: 20 μM; read-out: KRas G12D Q61H % Inh.
With `CC(C)N(Cc1nnc(-c2ccc(Cl)cc2Cl)o1)c1ccc(F)cc1`, the inhibition at 20 µM lay within 25 to 50%.
Still for that read-out and setting: in the case of `COc1ccc(COCC(=O)Nc2nnc(-c3ccccn3)[nH]2)cc1` [drawing 2563] it was 51 to 75%; in that of `O=C(Nc1nnc(-c2ccccn2)[nH]1)c1csc(-c2ccco2)n1` [drawing 2546], 51 to 75%; in that of `O=C(CCNC(=O)c1ccco1)Nc1nnc(-c2ccccn2)[nH]1` [drawing 2503], 51 to 75%.
As for `Cc1ccc(-c2ccc(Oc3ccc(C(F)(F)F)cn3)c(C)c2)cc1` [drawing 2621], the inhibition at 20 µM lay in the range of 51 to 75%.
As for `Cc1ccc(CN(Cc2ccco2)C(=O)c2oc3ccccc3c2C)cc1` [drawing 2614], the inhibition at 20 µM lay in the range of 51 to 75%.
Still for that read-out and setting: in the case of `COC(=O)c1cncc(C(=O)Nc2nnc(-c3ccccn3)[nH]2)c1` [drawing 2529] it was 51 to 75%; in that of `CC(C)C(=O)Nc1nc(CC(=O)Nc2nnc(-c3ccccn3)[nH]2)cs1` [drawing 2541], 51 to 75%.
On the same count and under the same terms, in the case of `Cc1ccc(CC(=O)Nc2nnc(-c3ccccn3)[nH]2)cc1` [drawing 2473] it was 51 to 75%; in that of `O=C(Nc1nnc(-c2ccccn2)[nH]1)c1ccc(NC(=O)c2ccccn2)cc1` [drawing 2528], 51 to 75%.
Regarding `O=c1nc(-c2ccccn2)[nH]c2c1sc1ccccc12` [drawing 2592], the inhibition at 20 µM lay within 51 to 75%.
Take `CCN(CC)C(=O)c1sc2[nH]c(-c3ccccn3)nc(=O)c2c1C` [drawing 2589]: the inhibition at 20 µM was 51 to 75%.
Same read-out and setting: to `Cc1sc2[nH]c(-c3ccccn3)nc(=O)c2c1-c1ccccc1` [drawing 2586] belongs 51 to 75%; to `N#Cc1ccc(OCC(=O)Nc2nnc(-c3ccccn3)[nH]2)cc1`, 51 to 75%; to `O=C(Cc1cccs1)Nc1nnc(-c2ccccn2)[nH]1` [drawing 2487], 51 to 75%.
The same measure, in the same setting: in the case of `Cc1ccc(CC(=O)Nc2nnc(-c3ccccn3)[nH]2)s1` [drawing 2521] it was 51 to 75%; in that of `O=C(Cc1c[nH]c2ccccc12)Nc1nnc(-c2ccccn2)[nH]1` [drawing 2456], 51 to 75%.
Consider `N#Cc1ccccc1OCC(=O)Nc1nnc(-c2ccccn2)[nH]1` [drawing 2488], for which the inhibition at 20 µM is 51 to 75%.
The same measure, in the same setting: in the case of `O=C(Cc1ccccc1)NCCC(=O)Nc1nnc(-c2ccccn2)[nH]1` [drawing 2495] it was 51 to 75%.
Still for that read-out and setting: to `CC(C(=O)Nc1nnc(-c2ccccn2)[nH]1)n1cnc2ccccc21` (stereo not shown) belongs 51 to 75%.

The same assay, now with this note: read-out: KRas G12D Q61H IC50.
In general, IC50 refers to the midpoint of a concentration-inhibition curve. `O=c1nc(-c2ccccn2)[nH]c2c1sc1ccccc12` [drawing 2592]: the IC50 fell in the range of 11 to 30 µM.
